Experimental data: patent US7923579B2, “Tricyclic hydroxamate and benzamide derivatives, compositions and methods” (Exonhit Therapeutics S.A., priority 2003, dated 2011)

Experiments:
[1] = tested on: HDAC; settings: read-out: HDAC activity is inhibited (reported concentration); depending of the HDAC activity assay used; cited from earlier work
[2] = tested on: HDAC activity of Hela (human cervical cancer cell line) cells nuclear extract; assay: HDAC Fluorescent Activity Assay (Biomol Fluor de Lys substrate) with Hela nuclear extract; format: biochemical; settings: read-out: IC50 (dose of compound leading to 50% of HDAC activity), Hela nuclear extract 5 μg, room temperature 0.5 h
Description: Therefore, a fast, non isotopic method has been chosen that relies on a fluorescent HDAC substrate. This assay is a two step enzymatic reaction. The substrate used is a peptidic substrate with a ε-acetylated lysyl moiety followed by a 4-methylcoumarin-7-amide (AMC) moiety at their carboxy terminus. In the first reaction catalysed by HDACs, acetate is released from ε-acetylated lysine residue. In the second reaction, the deacetylated peptides are recognized as substrate by trypsin, which cleaves the deacetylated peptide after the lysine residue. This cleavage releases the AMC and the fluorescence is monitored by a fluorometer.
In order to evaluate the effect of one compound on HDAC activity, the HDAC Fluorescent Activity Assay/Drug Discovery Kit® developed by Biomol and based on the two step enzymatic reaction described above was used with modifications. The substrate of the Biomol assay, called Fluor de Lys™, comprises an acetylated lysine side chain with an AMC moiety.
Then, 5 μg of Hela (human cervical cancer cell line) cells nuclear extract is added in each well. The enzymatic reaction is initiated by the addition of the diluted Fluor de Lys™ substrate and the microplate is incubated at room temperature (e.g. 25° C.) for 0.5 h. In order to stop the reaction and to produce the fluorophore release, 50 μl of the Fluor de Lys™ Developer solution is added in each well and the microplate is incubated at room temperature (e.g. 25° C.) for 0.25 h. Finally, the fluorescence is measured by a fluorimeter (Fluoroskan Ascent FL, Thermolabsystem) at excitation wavelength of 360 nm and emission wavelength of 460 nm.

IC50 [2] [nM]	melting point [°C]	Compound	IC50 [1] [nM]
–	–	CC(/C=C/C(=O)NO)=C\[C@@H](C)C(=O)c1ccc(N(C)C)cc1 [TSA, Trichostatin A]	1.4 to 2.6
424	–	CC1(C)CCC(C)(C)c2cc(C(F)(F)C(=O)Nc3ccc(C(=O)NO)cc3)ccc21 [EHT 9299, 4-(2,2-Difluoro-2-(1,2,3,4-tetrahydro-1,1,4,4-tetramethylnaphthalen-7-yl)acetamido)-N-hydroxybenzamide]	–
5130	–	CC1(C)CCC(C)(C)c2cc(C(=O)Nc3ccc(C(=O)NO)cc3)ccc21 [EHT 3741, N-(4-(Hydroxycarbamoyl)phenyl)-5,6,7,8-tetrahydro-5,5,8,8-tetramethylnaphthalene-2-carboxamide]	–
1180	211	CC1(C)CCC(C)(C)c2cc(NC(=O)c3ccc(C(=O)NO)cc3)ccc21 [EHT 7706, N-(1,2,3,4-Tetrahydro-1,1,4,4-tetramethylnaphthalen-6-yl)-N′-hydroxyterephthalamide]	–
4100	–	CC1(C)CCC(C)(C)c2cc(C(F)(F)C(=O)NCc3ccc(C(=O)NO)cc3)ccc21 [EHT 7800, 4-((2,2-Difluoro-2-(1,2,3,4-tetrahydro-1,1,4,4-tetramethylnaphthalen-7-yl)acetamido)methyl)-N-hydroxybenzamide]	–
–	224.2	CC1(C)CCC(C)(C)c2cc(C(=O)Nc3ccc(C(F)(F)C(=O)NO)cc3)ccc21 [EHT 4996, N-(4-((hydroxycarbamoyl)difluoromethyl)phenyl)-5,6,7,8-tetrahydro-5,5,8,8-tetramethylnaphthalene-2-carboxamide]	–
